Measured values: patent US7763626B2, “Compositions and method for enhancing the therapeutic activity of opiods in treatment of pain” (Trustees of Dartmouth College, priority 2004, dated 2010)

How the values were obtained:
Male Sprague-Dawley rats [1] = test: Morphine tolerance model, acute intrathecal morphine evaluated by thermal and mechanical test paradigms; type: in vivo, rat
Description: (§1) Male Sprague-Dawley rats (175-200 grams, Harlan, Indianapolis, Ind.) were divided into two groups (n=8 per group). Rats received subcutaneous injections of either saline or morphine (10 mg/kg; Sigma, St. Louis, Mo.) twice daily at 0800 to 0900 and 1600-1700 hour for 5 days in order to induce opioid tolerance. Chronic morphine withdrawal-induced hyperalgesia and allodynia were assessed in the animals 16 hours after the last injection of morphine. Following the recording of morphine withdrawal-induced hyperalgesia and allodynia, animals were treated with morphine (5 microgram) acutely via lumbar intrathecal injection to study the expression of morphine tolerance. Acute analgesic activity or intrathecal morphine in morphine-tolerant and chronic aline-treated rats were evaluated by mechanical (Analgesy-Meter) and thermal (tail-flick) test paradigms. Behaviors recorded prior to the acute administration of intrathecal morphine served as the basal latency measures.
With an understanding of the effects of morphine alone, separate groups of rats (n=8) received with saline or morphine (10 mg/kg subcutaneously, twice daily for 5 days) and also received once daily injections (at 1100 to 1200 hour) of propentofylline (1 and 10 micrograms) or saline via direct lumbar puncture during the induction of morphine tolerance. Again, chronic morphine withdrawal-induced hyperalgesia and allodynia were assessed in the animals 16 hours after the last subcutaneous morphine injection. […] As before, the acute analgesic activity of intrathecal morphine in morphine-tolerant and saline-injected rats was evaluated by mechanical (Analgesy-Meter) and thermal (tail-flick) test paradigms. Behavior recorded prior to the acute administration of intrathecal morphine served as the basal latency.
(§2) In blinded testing, rats were subjected to sequential series of 10 tactile stimulations to the dorsal surface of the ipsilateral hindpaw using […] von Frey filaments (Stoelting Co., WoodDale, Ill.) sequentially. The number of foot withdrawals to this normally non-noxious stimulus determined mechanical allodynia. Mechanical sensitivity was assessed by recording the total number of responses elicited during three successive trials separated by at least 10 minutes. The pressure required to elicit paw withdrawal, the paw pressure threshold was determined.
Thermal nociceptive thresholds were evaluated by the hot water tail-flick test that has been described previously (Bian, D. et al. 1999. Brain Res. 831:55-63). […] Again, the total number of responses elicited during three successive trials separated by at least 10 minutes was recorded and then expressed as the % maximal possible effect. […]

IL-6 mRNA = test: RNase protection assay, cytokine mRNA at L5 lumbar spinal cord; type: in vivo, rat; settings: propentofylline 10 micrograms intrathecally for 5 days during induction of morphine tolerance
Description: (§4) After behavioral testing for reactions to the combined treatment, rats were sacrificed and decapitated. An 18-gauge needle was inserted into the caudal end of the vertebral column and the spinal cord was expelled with ice-cold phosphate-buffered saline. The spinal cord was frozen immediately on dry ice and stored at −80° C. until homogenization. The L5 lumbar spinal cord was isolated from the intact frozen cord at the time of mRNA and protein quantification. Total RNA was isolated from the L5 spinal cord by the TRIzol extraction method (Invitrogen Corporation, Carlsbad, Calif).
(§5) Assessment of the temporal cytokine mRNA expression in the L5 lumber spinal cord was performed using a Ribonuclease Protection Assay technique. A Multiprobe RPAse kit was used (Pharmingen, San Diego, Calif.). Total RNA (15 μg) was hybridized to ^32P-labeled antisense RNA probes transcribed using the rat cytokine-1 (rCK-1) multiprobe template set resulting in double-stranded target RNA. After Rnase digestion, protected RNA and probe were resolved on a denaturing polyacrylamide gel and visualized by overnight autoradiography. Quantitative image analysis was employed to compare mRNA levels based on band intensities for each cytokine. The intensity of each band was measured using image analysis software and assigned an arbitrary unit based on the measured intensity levels. The value for the normalized quantity for each band was obtained by dividing by the L32 house-keeping gene control. Individual mRNA concentration was calculated as the ratio of the expression compared with saline-treated animals in which normal values were weighted as 1.

IL-1β mRNA = test: as above; type: in vivo, rat; settings: propentofylline 10 micrograms intrathecally for 5 days during induction of morphine tolerance
Description: as §4, §5

Male Sprague-Dawley rats [2] = test: Mechanical allodynia (von Frey filaments), morphine withdrawal; type: in vivo, rat
Description: as §1
(§3) With an understanding of the effects of morphine alone, separate groups of rats (n=8) received with saline or morphine (10 mg/kg subcutaneously, twice daily for 5 days) and also received once daily injections (at 1100 to 1200 hour) of propentofylline (1 and 10 micrograms) or saline via direct lumbar puncture during the induction of morphine tolerance. Again, chronic morphine withdrawal-induced hyperalgesia and allodynia were assessed in the animals 16 hours after the last subcutaneous morphine injection. Following the recording of morphine withdrawal-induced hyperalgesia and allodynia, animals were treated with morphine (5 micrograms) acutely via lumbar puncture to study the expression of morphine tolerance. As before, the acute analgesic activity of intrathecal morphine in morphine-tolerant and saline-injected rats was evaluated by mechanical (Analgesy-Meter) and thermal (tail-flick) test paradigms. Behavior recorded prior to the acute administration of intrathecal morphine served as the basal latency.
Mechanical sensitivity was measured as the frequency of foot withdrawals elicited by a defined mechanical stimulus. Each rat, under unrestrained conditions, was placed beneath an inverted, ventilated Plexiglas cage upon an elevated aluminum screen surface with 1 cm mesh openings. Animals had been previously acclimated to the environment and the experimenter.
as §2

Mac-1 mRNA = test: Real-time PCR of Mac-1 mRNA at L5 lumbar spinal cord; type: in vivo, rat
Description: Total RNA was treated with DNase I (Ambion, Austin, Tex.) to remove DNA contamination before cDNA synthesis. The reverse transcription (RT) was carried out in a 100 μl total reaction volume containing RT buffer, dNTPs, multiscribe reverse transcriptase, RNase-free water and 10 μg of DNase-treated total RNA. The RT reaction was carried out at 25° C. for 10 minutes, 37° C. for 120 minutes, and 95° C. for 5 minutes. Real-time PCR analysis was performed using gene-specific primers and probes that were designed and blasted against GENBANK to confirm their species and gene specificity. […] The real-time PCR reactions were carried out using Platinum Taq DNA polymerase, 20 mM Tris HCl (pH 8.4), 50 mM KCl, 3 mM MgCl2, 200 μM dGTP, dCTP, and dATP, 400 μM of dUTP and 1 U uracyl DNA glycosylase (UDG), 900 nM forward and reverse primers, 300 nM TaqMan probe, and 10-fold dilution of cDNA (50 ng) from the RT step. Primers and probes for glyceraldehyde-3-phosphate (GADPH), GFAP and Mac-1 were obtained form Applied Biosystems (LaJolla, Calif.). The relative standard curves generated by plotting the threshold value versus the log of the amount of total cDNA added to the reaction (1-10000 pg) were used to compare the relative amount of target genes from control and chronic morphine-treated animals.

Male Sprague-Dawley rats [3] = test: Paw pressure test (Analgesy-Meter), morphine withdrawal-induced mechanical hyperalgesia; type: in vivo, rat
Description: as §1, §3, §2

Male Sprague-Dawley rats [4] = test: Hot water tail-flick test, morphine withdrawal-induced thermal hyperalgesia; type: in vivo, rat
Description: as §1, §3
Thermal nociceptive thresholds were evaluated by the hot water tail-flick test that has been described previously (Bian, D. et al. 1999. Brain Res. 831:55-63). The test consisted of immersing the tail of the rats in water maintained at 49° C. and then recording the latency to a rapid flick. A 15 second cut-off time was used. Again, the total number of responses elicited during three successive trials separated by at least 10 minutes was recorded and then expressed as the % maximal possible effect. The tester was again blinded to the test groups.

TNF-α mRNA = test: RNase protection assay, cytokine mRNA at L5 lumbar spinal cord; settings: propentofylline 10 micrograms intrathecally for 5 days during induction of morphine tolerance
Description: as §4
Assessment of the temporal cytokine mRNA expression in the L5 lumber spinal cord was performed using a Ribonuclease Protection Assay technique. A Multiprobe RPAse kit was used (Pharmingen, San Diego, Calif.). […] Quantitative image analysis was employed to compare mRNA levels based on band intensities for each cytokine. The intensity of each band was measured using image analysis software and assigned an arbitrary unit based on the measured intensity levels. The value for the normalized quantity for each band was obtained by dividing by the L32 house-keeping gene control. Individual mRNA concentration was calculated as the ratio of the expression compared with saline-treated animals in which normal values were weighted as 1.

[5] = propentofylline 10 micrograms intrathecally for 5 days
[6] = 16 hours after last morphine injection (10 mg/kg s.c. twice daily 5 days), propentofylline 1 and 10 micrograms intrathecally for 5 days during induction of tolerance
[7] = 16 hours after last injection, morphine 10 mg/kg s.c. twice daily 5 days and/or propentofylline 10 micrograms intrathecally once daily 5 days

In the case of `CCCn1cnc2c1c(=O)n(CCCCC(C)=O)c(=O)n2C` [propentofylline], the “expression of spinal nociceptive tolerance to intrathecal morphine (5 micrograms)” value (Male Sprague-Dawley rats [1]; propentofylline 1 and 10 micrograms intrathecally for 5 days during induction of morphine tolerance, thermal and mechanical test paradigms) is reported as “significantly attenuated”, the “anti-nociceptive activity of acute intrathecal morphine (5 micrograms) in chronic saline-treated rats” value (Male Sprague-Dawley rats [1]; [5]) is reported as “no effect” and the “nociceptive threshold in saline-treated rats” value (Male Sprague-Dawley rats [1]; [5]) is reported as “no effect”. For the same compound, the “morphine-induced mRNA upregulation for IL-6” value (IL-6 mRNA) was “significantly attenuated”, the “morphine-induced mRNA upregulation for IL-1β” value (IL-1β mRNA) was “significantly attenuated” and the “morphine withdrawal-induced mechanical allodynia” value (Male Sprague-Dawley rats [2]; [6]) was “significantly attenuated”. For the same compound, the “Mechanical allodynia (2 grams)” value (Male Sprague-Dawley rats [2]; number of foot withdrawals, 2 grams von Frey filament, morphine 10 mg/kg s.c. twice daily 5 days and/or propentofylline 10 micrograms intrathecally) was 0, the “Mechanical allodynia (12 grams)” value (Male Sprague-Dawley rats [2]; number of foot withdrawals, 12 grams von Frey filament, morphine 10 mg/kg s.c. twice daily 5 days and/or propentofylline 10 micrograms intrathecally) was 0 and the “Mac-1 mRNA levels at the L5 lumbar spinal cord” value (Mac-1 mRNA; compared to saline-treated controls, morphine 10 mg/kg twice daily 5 days, or propentofylline 10 micrograms intrathecally 5 days in saline-treated rats) was “no effect”. The “chronic morphine-induced upregulation of Mac-1” value (Mac-1 mRNA; propentofylline during the induction phase of morphine tolerance) was “significantly attenuated”, the Paw pressure latency (Male Sprague-Dawley rats [3]; [7]) was 119.4 ± 5.4 grams and the “morphine withdrawal-induced mechanical hyperalgesia” value (Male Sprague-Dawley rats [3]; [6]) was “significantly attenuated”. The Tail-flick latency (Male Sprague-Dawley rats [4]; [7]) was 5.1 ± 0.3 s, the “morphine withdrawal-induced noxious thermal hyperalgesia” value (Male Sprague-Dawley rats [4]; [6]) was “significantly attenuated” and the “morphine-induced mRNA upregulation for TNF-α” value (TNF-α mRNA) was “significantly attenuated”.
